Where “and” joins values, the source holds several entries; their conditions need not be identical. Identical values can stand only once.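 Values below derive from 48-hour exposures of cells grown in 96-well plates, with endpoints linearly interpolated between the two concentrations bracketing the appropriate inhibition level. At the GI50, growth is halved. TGI: total growth inhibition.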
Columns and labels:
Assay in all cases: inhibition of tumour cell growth, NCI panel, 48 h
[1] = test system: HCT-116 colon
[2] = test system: KM20L2 colon
[3] = test system: DLD-1 colon
[4] = test system: M19-MEL melanoma
[5] = test system: MCF7 breast
[6] = test system: MDA-MB-231 breast
[7] = test system: T-47D breast
[8] = test system: PC-3 prostate

| Compound | GI50 [1] | TGI [1] | GI50 [2] | TGI [2] | GI50 [3] | TGI [3] | GI50 [4] | TGI [4] | GI50 [5] | TGI [5] | GI50 [6] | TGI [6] | GI50 [7] | TGI [7] | GI50 [8] | TGI [8] |
| --- | --- | --- | --- | --- | --- | --- | --- | --- | --- | --- | --- | --- | --- | --- | --- | --- |
| CC(=O)[CH-]C(=O)c1ccccc1.CC(=O)[CH-]C(=O)c1ccccc1.CC1(C)OCC(C2OC3OC(C)(C)OC3C2[O-])O1.CC[O-].[Ti+4] (configuration not stated) | 14.9 µM | 28.1 µM | 21 µM | 53.5 µM | 9.78 µM | 24.7 µM | 10.5 µM | 24.5 µM |  |  |  |  |  |  |  |  |
| C/C1=C\CC[C@@](C)(O)[C@@H]2C[C@H](CC/C(C)=C/CC1)C1(CC1)C(=O)O2 | 24.2 µM | 54.1 µM |  |  |  |  |  |  | 66.9 µM | > 100 µM | 13.6 µM | 32.6 µM | 16.7 µM | 67.2 µM | 27.8 µM | 69.4 µM |
| Fc1ccc2nc(-c3cc(-c4ccc5c(c4)OCO5)n[nH]3)[nH]c2c1 | 3.51 µM | > 32.5 µM |  |  |  |  |  |  | 3.84 µM | > 100 µM | 2.01 µM | 6.59 µM | 3.31 µM | 52.1 µM | 3.61 µM | > 82.3 µM |
| CCNCCNc1cc(-c2ccc(C#N)cc2)c(C#N)c2nc3ccccc3n12 | 1.5 µM | 2.94 µM |  |  |  |  |  |  | 3.59 µM | 16.2 µM | 2.35 µM | 5.61 µM | 2.34 µM | 6.39 µM | 7.41 µM | 20.7 µM |
| CCn1c(-c2nonc2N)nc2ccncc21 | > 25 µM | > 25 µM |  |  |  |  |  |  | > 25 µM | > 25 µM | > 25 µM | > 25 µM | > 25 µM | > 25 µM | > 25 µM | > 25 µM |
| O=C1/C(=C/c2ccc([N+](=O)[O-])cc2)COc2ccc(O)cc21 | 1.67 µM | 3.43 µM |  |  |  |  |  |  | 1.23 µM | 2.8 µM | 4.77 µM | 36.9 µM | 9.73 µM | > 100 µM | 2.58 µM | 7.27 µM |
| O=C(/C=C/c1cccc(O)c1)c1cccc(-n2cc(-c3ccc4ccccc4c3)[nH]c2=O)c1 | 0.407 µM | 1.45 µM |  |  |  |  |  |  | 0.471 µM | 1.83 µM | 1.66 µM | 4.9 µM | 1.11 µM | 3.84 µM | 1.85 µM | 7.9 µM |
| Nc1cc(-c2ccc(Cl)cc2)nn1-c1nnc(/C=C/c2ccco2)c(=O)[nH]1 | 3.15 µM | 15.8 µM |  |  |  |  |  |  | 2.95 µM | 26.1 µM | 11.2 µM | > 100 µM | 5.35 µM | > 66.5 µM | 8.95 µM | > 75 µM |
| O=C(c1cccs1)C1NO[N+]([O-])=C1c1cccs1 (configuration not stated) | 3.03 µM | 10.2 µM |  |  |  |  |  |  | 4.84 µM | 16.3 µM | 11.8 µM | 25 µM | 2.2 µM | 5.09 µM | 8.43 µM | 22.3 µM |
| C=CC1=C(C)C2=NC1=CC1=NC(=CC3=C(C)C4=C(O)[C@H](C(=O)OC)C(=C5NC(=C2)[C@@H](C)[C@@H]5CCC(=O)O)C4=N3)C(CC)=C1C |  | > 59 µM |  |  |  |  |  |  |  | 11 µM |  | > 60.5 µM |  | 62.4 µM |  | > 41.1 µM |
| COc1cccc2c(=O)c3c(sc12)c(NCCCNCCO)nc1ccccc13 | 1.41 µM | 2.74 µM |  |  |  |  |  |  | 1.46 µM | 3 µM | 1.35 µM | 2.86 µM | 1.48 µM | 3.48 µM | 1.23 µM | 2.7 µM |
| Cc1cc(C)n(C2=NS(=O)(=O)c3ccccc3N2C)n1 |  | > 100 µM |  |  |  |  |  |  |  | > 100 µM |  | > 100 µM |  | > 100 µM |  | > 100 µM |
| CCOC(=O)N1CCN(CCCCCOc2ccccc2C2CCCCC2)CC1 | 2.16 µM | 9.65 µM |  |  |  |  |  |  | 3.2 µM | 13.1 µM | 5.1 µM | 21.5 µM | 2.35 µM | 14.4 µM | 2.6 µM | 13 µM |
| Cc1cc2c(cc1Cl)S/C(=C/C(=O)O)C(Nc1cccc3nsnc13)=NS2(=O)=O | 33.5 µM | > 59.2 µM |  |  |  |  |  |  | 32.7 µM | > 76.2 µM | 47.4 µM | > 69.4 µM | > 77.8 µM | > 100 µM | 41 µM | > 75.8 µM |
| CCOc1ccc(Nc2c3ccccc3nc3ccccc23)cc1 | 0.335 µM and 0.318 µM | 1.32 µM and 2.81 µM |  |  |  |  |  |  | 0.318 µM and 0.297 µM | 4.2 µM and 4.23 µM | 1.91 µM and 0.959 µM | 9.67 µM and 14.5 µM | 1.34 µM and 0.916 µM | 3.78 µM and 3.83 µM | 0.392 µM and 0.748 µM | 7.29 µM and 5.61 µM |
| COc1ccc(C(=O)c2nc3ccccc3n2CC(=O)c2ccc(Cl)cc2)cc1 | 3.15 µM | > 100 µM |  |  |  |  |  |  | 2.1 µM | > 100 µM | 15.6 µM | > 100 µM | 3.65 µM | > 100 µM | 3.09 µM | > 100 µM |
| CN(C)C(=S)Nc1nnc(Nc2ccccc2)s1 |  | > 100 µM |  | > 100 µM |  | > 100 µM |  | > 100 µM |  |  |  |  |  |  |  |  |
| COc1cccc(COc2cc(-n3cnc4ccccc43)sc2C(N)=O)c1 | 12.8 µM | > 25 µM |  |  |  |  |  |  | 1.08 µM | > 25 µM | 14.8 µM | > 25 µM | > 25 µM | > 25 µM | > 25 µM | > 25 µM |
| Cc1ccc(NC(=O)/C(Cc2cc(=O)oc3cc(O)ccc23)=N\NC(=O)C[N+](C)(C)C)cc1C |  | > 100 µM |  |  |  |  |  |  |  | > 100 µM |  | > 100 µM |  | > 100 µM |  | > 100 µM |
| Cc1ccc(-n2nc(C(C)(C)C)cc2NC(=O)NCc2cc(F)ccc2Oc2ccc3c(cnn3CCO)c2)cc1 | 2.34 µM and 2.46 µM | > 36.3 µM |  |  |  |  |  |  | 3.55 µM and 3.26 µM | > 10 µM and 51.7 µM | 2.6 µM and 2.57 µM | > 58.9 µM | 3.79 µM and 3.76 µM | > 10 µM and 32.7 µM | > 10 µM and 5.28 µM | > 100 µM |
| COC(=O)c1ccc2c(c1)C(=O)c1c-2n(CCCN=[N+]=[N-])c(=O)c2cc([N+](=O)[O-])ccc12 | 47.4 µM | > 100 µM |  |  |  |  |  |  | > 100 µM | > 100 µM | 58 µM | > 100 µM | > 100 µM | > 100 µM | > 100 µM | > 100 µM |
| O=C(NCCN1CCNCC1)c1ccc(Nc2nc3ccccc3c3occc23)cc1 | 4.11 µM | 15.8 µM |  |  |  |  |  |  | 30.2 µM | > 100 µM | 11.8 µM | 25.8 µM | 5.71 µM | 35.4 µM | 11.1 µM | 29.8 µM |

Source: PubChem BioAssay (NCI)
